Earlier results on one compound are cited in patent US20080175903A1, “Treatment of anxiety with eszopiclone” (Sepracor Inc., priority 2006, published 2008).

This data set deals with rhesus monkeys. Particulars: previously published in Rowlett et al., 2006; cited from earlier work.

As for `CN1C(=O)CN=C(c2ccccc2)c2cc(Cl)ccc21` [Diazepam, diazepam], the “ED50, non-suppressed responding” value is given as 1.65 mg/kg and the “ED50, suppressed responding” value is recorded as 0.11 mg/kg.
